From ChEMBL document CHEMBL1938343, “Lead optimisation of selective non-zinc binding inhibitors of MMP13. Part 2” (Bioorg Med Chem Lett, 2012)

Columns and labels:
Stromelysin-1 = Stromelysin-1 (Homo sapiens, UniProt P08254); assay: Inhibition of MMP3 using Mca-Pro-cyclohexyl-Ala-Gly-Nva-His-Ala- Dap(Dnp)-NH2 as substrate by fluorometric analysis
[1] = Thermodynamic solubility of the compound
[2] = biological target: T1, Matrix metalloproteinase-19 (Homo sapiens, UniProt Q99542); assay: Inhibition of MMP19 using Mca-Pro-cyclohexyl-Ala-Gly-Nva-His-Ala- Dap(Dnp)-NH2 as substrate by fluorometric analysis
T1 sequence (Q99542 whole entry): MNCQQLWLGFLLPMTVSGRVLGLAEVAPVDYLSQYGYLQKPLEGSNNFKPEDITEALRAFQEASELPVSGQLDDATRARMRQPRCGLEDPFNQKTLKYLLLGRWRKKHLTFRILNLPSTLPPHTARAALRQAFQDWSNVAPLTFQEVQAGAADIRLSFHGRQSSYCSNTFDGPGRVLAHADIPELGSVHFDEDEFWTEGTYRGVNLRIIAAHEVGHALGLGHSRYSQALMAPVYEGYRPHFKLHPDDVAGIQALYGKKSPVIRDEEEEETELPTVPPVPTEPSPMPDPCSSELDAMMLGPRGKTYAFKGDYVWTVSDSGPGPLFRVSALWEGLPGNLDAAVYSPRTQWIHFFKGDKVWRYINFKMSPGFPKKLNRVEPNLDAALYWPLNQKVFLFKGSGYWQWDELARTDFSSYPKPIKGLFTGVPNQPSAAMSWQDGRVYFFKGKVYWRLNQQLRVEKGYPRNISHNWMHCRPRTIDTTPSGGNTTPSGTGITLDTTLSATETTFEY

[3] = Volume of distribution at steady state in dog at 1 mg/kg, iv and 1 mg/kg, po; type: ADME, organism-based, Canis lupus familiaris; conditions: in vivo, read-out: Vdss
Cytochrome P450 2C9 = Cytochrome P450 2C9 (Homo sapiens, UniProt P11712); assay: Inhibition of CYP2C9; type: ADME; conditions: read-out: IC50
Chain of Cytochrome P450 2C9 (P11712 whole entry): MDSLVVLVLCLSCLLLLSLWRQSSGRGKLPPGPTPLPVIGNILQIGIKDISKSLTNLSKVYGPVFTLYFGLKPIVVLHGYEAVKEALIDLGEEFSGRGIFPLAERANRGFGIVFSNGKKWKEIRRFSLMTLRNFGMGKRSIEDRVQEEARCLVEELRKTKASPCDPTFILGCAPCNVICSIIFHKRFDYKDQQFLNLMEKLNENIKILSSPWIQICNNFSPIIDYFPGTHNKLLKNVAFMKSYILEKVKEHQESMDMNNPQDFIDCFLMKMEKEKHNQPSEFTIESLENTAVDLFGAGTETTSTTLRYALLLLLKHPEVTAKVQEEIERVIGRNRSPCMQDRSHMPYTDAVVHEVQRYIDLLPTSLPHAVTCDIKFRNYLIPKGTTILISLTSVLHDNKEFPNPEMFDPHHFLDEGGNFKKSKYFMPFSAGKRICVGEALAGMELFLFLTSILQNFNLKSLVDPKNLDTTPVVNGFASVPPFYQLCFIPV

[4] = Half life in dog at 1 mg/kg, iv and 1 mg/kg, po; type: ADME, organism-based, Canis lupus familiaris; conditions: in vivo
[5] = Apparent permeability across apical to basolateral side in human Caco2 cells at 10 uM; type: ADME, cell-based; conditions: Caco-2
[6] = Half life in rat at 2 mg/kg, iv; type: ADME, organism-based; parameters: dose 2 mg/kg, route intravenous; conditions: in vivo
[7] = Apparent permeability across basolateral to apical side in human Caco2 cells at 10 uM; type: ADME, cell-based; conditions: Caco-2
[8] = Fraction unbound in rat; type: ADME, organism-based; conditions: in vivo
Rattus norvegicus = assay: Oral bioavailability in rat; type: ADME, organism-based; conditions: in vivo
Hepatocyte = assay: Intrinsic clearance in Sprague-Dawley rat hepatocytes assessed per 10^6 cells; type: ADME, cell-based
[9] = Intrinsic clearance in human hepatocytes assessed per 10^6 cells; type: ADME, cell-based, Hepatocyte; conditions: read-out: CLH
[10] = Cytotoxicity in mouse spleen macrophages assessed as phospholipidosis; conditions: Macrophage
[11] = Fraction unbound in human; type: ADME, organism-based; conditions: in vivo
[12] = biological target: Macrophage metalloelastase (Homo sapiens, UniProt P39900); assay: Inhibition of MMP12 using Mca-Pro-cyclohexyl-Ala-Gly-Nva-His-Ala- Dap(Dnp)-NH2 as substrate by fluorometric analysis; conditions: read-out: IC50
Chain of Macrophage metalloelastase (P39900 whole entry): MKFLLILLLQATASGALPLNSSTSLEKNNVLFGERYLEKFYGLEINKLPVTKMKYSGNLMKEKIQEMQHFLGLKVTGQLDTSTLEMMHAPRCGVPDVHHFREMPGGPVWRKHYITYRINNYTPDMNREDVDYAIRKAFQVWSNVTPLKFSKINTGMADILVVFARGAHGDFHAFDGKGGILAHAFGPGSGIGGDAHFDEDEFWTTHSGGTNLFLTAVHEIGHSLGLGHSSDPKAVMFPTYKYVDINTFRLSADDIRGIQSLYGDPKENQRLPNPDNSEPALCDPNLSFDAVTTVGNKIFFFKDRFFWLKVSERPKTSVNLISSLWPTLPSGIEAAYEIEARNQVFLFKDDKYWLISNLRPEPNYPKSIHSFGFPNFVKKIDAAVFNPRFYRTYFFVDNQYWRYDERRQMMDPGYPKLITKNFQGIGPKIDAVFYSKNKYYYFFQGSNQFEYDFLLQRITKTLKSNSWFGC

[13] = biological target: 72 kDa type IV collagenase (Homo sapiens, UniProt P08253); assay: Inhibition of MMP2 using Mca-Pro-cyclohexyl-Ala-Gly-Nva-His-Ala- Dap(Dnp)-NH2 as substrate by fluorometric analysis; conditions: read-out: IC50
Chain of 72 kDa type IV collagenase (P08253 whole entry): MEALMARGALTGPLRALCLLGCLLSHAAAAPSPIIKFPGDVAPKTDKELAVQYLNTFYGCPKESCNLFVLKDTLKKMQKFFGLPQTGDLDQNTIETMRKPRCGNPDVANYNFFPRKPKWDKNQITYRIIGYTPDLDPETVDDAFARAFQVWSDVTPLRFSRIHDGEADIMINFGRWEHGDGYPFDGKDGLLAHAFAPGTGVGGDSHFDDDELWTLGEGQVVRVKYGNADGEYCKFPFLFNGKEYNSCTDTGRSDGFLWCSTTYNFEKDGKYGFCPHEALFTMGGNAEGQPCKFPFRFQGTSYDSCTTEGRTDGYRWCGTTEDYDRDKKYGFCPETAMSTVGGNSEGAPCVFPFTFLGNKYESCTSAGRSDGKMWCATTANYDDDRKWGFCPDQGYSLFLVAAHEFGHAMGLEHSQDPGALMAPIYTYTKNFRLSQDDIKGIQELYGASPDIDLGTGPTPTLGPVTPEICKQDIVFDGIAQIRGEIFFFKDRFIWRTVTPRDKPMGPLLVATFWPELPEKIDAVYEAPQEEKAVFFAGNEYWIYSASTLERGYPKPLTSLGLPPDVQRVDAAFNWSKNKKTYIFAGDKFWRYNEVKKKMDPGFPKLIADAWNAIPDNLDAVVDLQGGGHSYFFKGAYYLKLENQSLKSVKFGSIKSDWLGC

[14] = Lipophilicity, log D of the compound; conditions: octanol/water
[15] = biological target: Matrix metalloproteinase-14 (Homo sapiens, UniProt P50281); assay: Inhibition of MMP14 using Mca-Pro-cyclohexyl-Ala-Gly-Nva-His-Ala- Dap(Dnp)-NH2 as substrate by fluorometric analysis; conditions: read-out: IC50
[16] = Oral bioavailability in dog; type: ADME, organism-based, Canis lupus familiaris; conditions: in vivo
[17] = Renal elimination in rat at 2 mg/kg, iv; type: ADME, organism-based; parameters: dose 2 mg/kg, route intravenous; conditions: urine, read-out: Ae
Cytochrome P450 2D6 = Cytochrome P450 2D6 (Homo sapiens, UniProt P10635); assay: Inhibition of CYP2D6; type: ADME; conditions: read-out: IC50
Chain of Cytochrome P450 2D6 (P10635 whole entry): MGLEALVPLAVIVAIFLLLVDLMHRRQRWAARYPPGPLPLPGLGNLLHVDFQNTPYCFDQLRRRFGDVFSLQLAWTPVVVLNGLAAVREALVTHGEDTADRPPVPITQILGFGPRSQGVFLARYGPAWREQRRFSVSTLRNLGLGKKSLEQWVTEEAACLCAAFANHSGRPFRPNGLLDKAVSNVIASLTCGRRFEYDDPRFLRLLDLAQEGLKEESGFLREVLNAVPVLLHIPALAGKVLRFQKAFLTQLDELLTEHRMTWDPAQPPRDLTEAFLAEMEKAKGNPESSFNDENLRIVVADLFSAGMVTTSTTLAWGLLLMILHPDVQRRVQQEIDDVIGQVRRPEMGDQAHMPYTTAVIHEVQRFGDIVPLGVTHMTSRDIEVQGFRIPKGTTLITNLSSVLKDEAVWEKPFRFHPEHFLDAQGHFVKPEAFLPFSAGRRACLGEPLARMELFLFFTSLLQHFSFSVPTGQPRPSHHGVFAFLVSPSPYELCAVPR

[18] = Volume of distribution at steady state in rat at 2 mg/kg, iv; type: ADME, organism-based; parameters: dose 2 mg/kg, route intravenous; conditions: in vivo, read-out: Vdss
[19] = Fraction unbound in dog; type: ADME, organism-based, Canis lupus familiaris; conditions: in vivo
[20] = Clearance in dog at 1 mg/kg, iv and 1 mg/kg, po; type: ADME, organism-based, Canis lupus familiaris; conditions: in vivo
Cytochrome P450 3A4 = Cytochrome P450 3A4 (Homo sapiens, UniProt P08684); assay: Inhibition of CYP3A4; type: ADME; conditions: read-out: IC50
Chain of Cytochrome P450 3A4 (P08684 whole entry): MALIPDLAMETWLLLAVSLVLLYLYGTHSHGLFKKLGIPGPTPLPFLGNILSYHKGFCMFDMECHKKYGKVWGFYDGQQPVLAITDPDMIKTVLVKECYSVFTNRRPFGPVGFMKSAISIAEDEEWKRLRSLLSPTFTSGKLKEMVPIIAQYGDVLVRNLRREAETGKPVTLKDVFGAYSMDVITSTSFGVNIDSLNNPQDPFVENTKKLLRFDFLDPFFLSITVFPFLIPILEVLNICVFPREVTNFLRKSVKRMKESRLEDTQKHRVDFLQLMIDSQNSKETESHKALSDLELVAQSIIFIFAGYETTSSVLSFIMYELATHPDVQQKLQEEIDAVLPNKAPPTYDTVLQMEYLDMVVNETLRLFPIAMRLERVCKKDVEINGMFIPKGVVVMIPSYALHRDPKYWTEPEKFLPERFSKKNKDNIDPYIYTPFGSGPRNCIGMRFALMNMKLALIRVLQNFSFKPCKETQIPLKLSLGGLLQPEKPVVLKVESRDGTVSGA

[21] = biological target: Matrix metalloproteinase-9 (Homo sapiens, UniProt P14780); assay: Inhibition of MMP9 using Mca-Pro-cyclohexyl-Ala-Gly-Nva-His-Ala- Dap(Dnp)-NH2 as substrate by fluorometric analysis; conditions: read-out: IC50
Chain of Matrix metalloproteinase-9 (P14780 whole entry): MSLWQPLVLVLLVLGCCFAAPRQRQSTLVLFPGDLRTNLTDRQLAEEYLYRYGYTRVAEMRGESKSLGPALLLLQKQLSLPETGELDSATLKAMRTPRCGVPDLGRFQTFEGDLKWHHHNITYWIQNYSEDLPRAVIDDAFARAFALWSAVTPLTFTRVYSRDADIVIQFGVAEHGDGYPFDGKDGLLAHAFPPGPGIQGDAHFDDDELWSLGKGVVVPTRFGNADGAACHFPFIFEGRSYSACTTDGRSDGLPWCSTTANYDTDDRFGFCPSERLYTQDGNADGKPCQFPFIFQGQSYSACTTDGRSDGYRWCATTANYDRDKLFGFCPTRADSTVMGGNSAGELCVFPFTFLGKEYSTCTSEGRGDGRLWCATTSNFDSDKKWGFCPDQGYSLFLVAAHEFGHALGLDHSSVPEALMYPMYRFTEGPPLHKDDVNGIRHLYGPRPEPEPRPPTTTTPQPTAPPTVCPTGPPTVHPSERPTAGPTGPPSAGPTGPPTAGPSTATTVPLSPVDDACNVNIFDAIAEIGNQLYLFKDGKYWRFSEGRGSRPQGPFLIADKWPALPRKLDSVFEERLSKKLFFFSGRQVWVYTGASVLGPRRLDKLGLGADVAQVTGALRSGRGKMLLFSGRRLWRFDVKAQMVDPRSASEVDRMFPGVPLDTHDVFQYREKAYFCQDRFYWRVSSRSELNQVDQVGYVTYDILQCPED

Cytochrome P450 2C19 = Cytochrome P450 2C19 (Homo sapiens, UniProt P33261); assay: Inhibition of CYP2C19; type: ADME; conditions: read-out: IC50
Chain of Cytochrome P450 2C19 (P33261 whole entry): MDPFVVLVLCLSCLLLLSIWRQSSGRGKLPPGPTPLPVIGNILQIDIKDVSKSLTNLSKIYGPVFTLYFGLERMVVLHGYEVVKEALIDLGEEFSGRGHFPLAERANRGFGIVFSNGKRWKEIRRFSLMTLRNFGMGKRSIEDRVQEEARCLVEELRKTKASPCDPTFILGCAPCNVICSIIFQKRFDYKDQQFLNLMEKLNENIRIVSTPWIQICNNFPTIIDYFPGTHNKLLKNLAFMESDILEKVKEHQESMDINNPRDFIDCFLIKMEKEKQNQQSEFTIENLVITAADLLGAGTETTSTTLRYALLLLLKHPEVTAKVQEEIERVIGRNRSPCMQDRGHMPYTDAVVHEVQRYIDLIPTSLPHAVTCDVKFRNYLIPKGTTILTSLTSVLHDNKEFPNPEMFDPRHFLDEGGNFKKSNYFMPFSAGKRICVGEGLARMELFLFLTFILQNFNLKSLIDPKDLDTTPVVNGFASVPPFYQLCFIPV

Interstitial collagenase = biological target: T2, Interstitial collagenase (Homo sapiens, UniProt P03956); assay: Inhibition of MMP1 using Mca-Pro-cyclohexyl-Ala-Gly-Nva-His-Ala- Dap(Dnp)-NH2 as substrate by fluorometric analysis
T2 sequence (P03956 whole entry): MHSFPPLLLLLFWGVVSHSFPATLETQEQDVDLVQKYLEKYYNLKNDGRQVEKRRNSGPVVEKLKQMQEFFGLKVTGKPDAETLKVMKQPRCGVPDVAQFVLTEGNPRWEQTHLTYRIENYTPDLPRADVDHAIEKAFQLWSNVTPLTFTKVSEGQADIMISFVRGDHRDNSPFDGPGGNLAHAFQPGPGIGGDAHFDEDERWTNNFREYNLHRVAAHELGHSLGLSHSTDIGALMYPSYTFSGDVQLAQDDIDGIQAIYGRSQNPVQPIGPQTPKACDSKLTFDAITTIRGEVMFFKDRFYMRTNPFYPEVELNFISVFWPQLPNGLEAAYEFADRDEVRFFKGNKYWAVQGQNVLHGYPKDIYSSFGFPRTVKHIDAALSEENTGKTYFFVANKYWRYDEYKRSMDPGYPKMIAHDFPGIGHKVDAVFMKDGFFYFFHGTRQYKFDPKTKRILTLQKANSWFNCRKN

Chain of Stromelysin-1 (P08254 whole entry): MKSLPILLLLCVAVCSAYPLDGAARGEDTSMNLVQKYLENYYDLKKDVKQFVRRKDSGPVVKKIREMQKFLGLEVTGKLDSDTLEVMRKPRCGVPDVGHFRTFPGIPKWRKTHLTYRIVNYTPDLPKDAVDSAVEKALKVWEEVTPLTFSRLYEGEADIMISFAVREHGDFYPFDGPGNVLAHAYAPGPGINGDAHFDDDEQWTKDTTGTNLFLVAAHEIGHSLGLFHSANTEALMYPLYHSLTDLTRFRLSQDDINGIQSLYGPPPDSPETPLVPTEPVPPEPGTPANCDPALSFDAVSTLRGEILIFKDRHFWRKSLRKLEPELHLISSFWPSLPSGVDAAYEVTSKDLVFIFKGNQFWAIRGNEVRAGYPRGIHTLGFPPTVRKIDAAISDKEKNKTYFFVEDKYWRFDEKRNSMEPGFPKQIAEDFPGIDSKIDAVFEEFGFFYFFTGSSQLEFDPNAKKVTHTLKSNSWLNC

Compound: O=C(NC1CCCS(=O)(=O)C1)c1ccc(Oc2ccc(C#C[C@]3(O)CN4CCC3CC4)cc2)cc1 (single isomer, unassigned; diastereomer 1)
- IC50 (Stromelysin-1): > 10 µM
- Therm_solubility [1]: 160 µM
- IC50 [2]: > 10 µM
- Vd [3]: 3.9 L/kg
- IC50 (Cytochrome P450 2C9): > 10 µM
- half-life [4]: 5 h
- Papp A→B at 10 µM [5]: 1.3 ×10⁻⁶ cm/s
- half-life [6]: 4.8 h
- Papp B→A at 10 µM [7]: 43.5 ×10⁻⁶ cm/s
- fraction unbound [8]: 0.27
- F (Rattus norvegicus): 35%
- CLH (Hepatocyte): 2.9 µL/min
- hepatocyte CLint [9]: < 2 µL/min/1e6 cells
- EC50 [10]: 116 µM
- fraction unbound [11]: 0.25
- IC50 [12]: > 10 µM
- IC50 [13]: 5.1 µM
- logD [14]: 1.4
- IC50 [15]: > 10 µM
- bioavailability [16]: 21%
- dose excreted [17]: < 1%
- IC50 (Cytochrome P450 2D6): > 10 µM
- Vd [18]: 5.9 L/kg
- fraction unbound [19]: 0.33
- clearance [20]: 13 mL/min/kg
- IC50 (Cytochrome P450 3A4): > 10 µM
- IC50 [21]: > 10 µM
- IC50 (Cytochrome P450 2C19): > 10 µM
- IC50 (Interstitial collagenase): > 10 µM
